Measured values published in ChEMBL document CHEMBL1201862, “PubChem BioAssay data set” (2004).
The source made the active and inactive calls.

Columns and labels:
[1] = biological target: T1, Oxysterols receptor LXR-beta (Homo sapiens, UniProt P55055); format: functional, cell-based
T1 sequence (P55055 whole entry): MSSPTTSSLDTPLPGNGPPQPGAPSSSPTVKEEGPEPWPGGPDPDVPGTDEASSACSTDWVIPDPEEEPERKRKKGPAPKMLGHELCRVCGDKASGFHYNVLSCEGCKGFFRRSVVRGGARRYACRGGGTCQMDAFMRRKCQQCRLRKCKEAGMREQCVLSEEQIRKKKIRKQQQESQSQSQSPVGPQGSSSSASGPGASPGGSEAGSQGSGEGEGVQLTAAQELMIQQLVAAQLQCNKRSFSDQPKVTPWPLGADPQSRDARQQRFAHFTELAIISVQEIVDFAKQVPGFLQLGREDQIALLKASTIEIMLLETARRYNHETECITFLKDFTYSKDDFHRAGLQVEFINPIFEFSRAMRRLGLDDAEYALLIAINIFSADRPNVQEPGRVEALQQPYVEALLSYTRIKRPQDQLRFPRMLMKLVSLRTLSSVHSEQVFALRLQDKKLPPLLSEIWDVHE

[2] = biological target: T2, Heat shock factor protein 1 (Mus musculus, UniProt P38532); experiment: decrease of HSF1-responsive luciferase luminescence – cell-based, NIH3T3, dose retest, confirmation (AID 2382); format: functional;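 note: NIH3T3 fibroblasts with HSF1-driven luciferase reporter stressed by proteasome inhibitor MG132; luminescence from HSF1-driven luciferase expression after 8 hours of MG132 stress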
T2 sequence (P38532 whole entry): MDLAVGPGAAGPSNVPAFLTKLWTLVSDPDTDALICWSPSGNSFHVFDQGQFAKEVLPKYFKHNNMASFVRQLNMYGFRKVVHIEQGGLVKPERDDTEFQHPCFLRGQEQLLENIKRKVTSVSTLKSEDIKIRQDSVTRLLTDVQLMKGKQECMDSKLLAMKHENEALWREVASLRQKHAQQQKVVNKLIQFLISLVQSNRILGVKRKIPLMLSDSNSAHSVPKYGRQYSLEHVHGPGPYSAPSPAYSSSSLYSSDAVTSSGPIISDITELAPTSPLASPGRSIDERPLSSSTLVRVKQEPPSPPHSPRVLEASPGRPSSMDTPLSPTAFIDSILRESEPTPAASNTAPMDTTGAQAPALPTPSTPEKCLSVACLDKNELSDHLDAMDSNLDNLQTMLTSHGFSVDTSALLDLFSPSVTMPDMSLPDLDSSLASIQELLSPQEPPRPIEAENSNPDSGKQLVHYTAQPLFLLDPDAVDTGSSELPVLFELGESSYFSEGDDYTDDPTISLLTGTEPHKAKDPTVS

[3] = viability loss in Vero cells – cytotoxicity control for Vif-APOBEC3G degradation inhibitor project, dose response (AID 1117358); format: functional; settings: Vero
[4] = Vero E6 cell cytotoxicity, dose response, cytotoxicity control for non-replicating M. tuberculosis project, secondary assay (AID 492998); format: functional, VeroE6; settings: Vero C1008
[5] = THP-1 cell cytotoxicity, dose response, cytotoxicity control for non-replicating M. tuberculosis project (AID 489025); format: functional
[6] = biological target: T3, Protein skinhead-1 (Caenorhabditis elegans, UniProt P34707); format: functional
T3 sequence (P34707 whole entry): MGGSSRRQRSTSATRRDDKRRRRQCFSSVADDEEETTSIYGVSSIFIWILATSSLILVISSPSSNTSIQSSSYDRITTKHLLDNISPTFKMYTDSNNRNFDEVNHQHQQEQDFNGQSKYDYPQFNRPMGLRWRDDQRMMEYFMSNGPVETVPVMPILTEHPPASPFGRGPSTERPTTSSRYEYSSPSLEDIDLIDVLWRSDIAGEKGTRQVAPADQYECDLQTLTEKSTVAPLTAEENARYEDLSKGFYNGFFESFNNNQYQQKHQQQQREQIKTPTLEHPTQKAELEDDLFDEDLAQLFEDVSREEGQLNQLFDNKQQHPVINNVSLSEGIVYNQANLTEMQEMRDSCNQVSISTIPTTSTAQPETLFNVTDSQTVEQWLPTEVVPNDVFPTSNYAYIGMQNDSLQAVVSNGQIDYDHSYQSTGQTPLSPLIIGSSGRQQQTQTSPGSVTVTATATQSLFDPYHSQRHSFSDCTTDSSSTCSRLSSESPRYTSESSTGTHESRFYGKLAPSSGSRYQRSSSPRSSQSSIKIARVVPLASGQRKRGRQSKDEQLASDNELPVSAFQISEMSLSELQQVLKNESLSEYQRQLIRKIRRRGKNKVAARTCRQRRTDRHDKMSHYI

[7] = biological target: T1, Oxysterols receptor LXR-beta; format: functional, cell-based; remark: listed apart in the source
[8] = cells
[9] = biological target: Paired box protein Pax-8 (Homo sapiens, UniProt Q06710); experiment: PAX8 transcriptional activity inhibition in RMG-I – RMG-I cells, luciferase, cherry-pick, dose response (AID 687027); format: functional, cell-based;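 note: luciferase reporter driven by Pax8 target thyroperoxidase promoter measured by SteadyGlo luminescence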
[10] = Trypanosoma cruzi growth suppression in host cells – NIH3T3 host cells, beta-gal luminescence, confirmation (AID 2044); format: functional, cell-based;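 note: intracellular parasites grown in NIH/3T3 mouse fibroblasts as host cells; luminescent beta-galactosidase reporter signal from transgenic T. cruzi replicating inside host cells; inhibitors lower the luminescence signal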
[11] = biological target: Histone-lysine N-methyltransferase NSD2 (Homo sapiens, UniProt O96028); format: biochemical
[12] = NIH3T3 cell viability loss – ATP luminescence, mouse fibroblasts, counter-screen, dose response (AID 2010); format: functional, cell-based;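 note: cells exposed to compound for about 90 hours before reading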
[13] = fluconazole-exposed Candida albicans growth modulators – fluorescence, retest, confirmation (AID 2467); format: functional, cell-based
[14] = tested on: INS1; experiment: INS-1E survival protection against cytokine death – cell-based, luminescence, retest, dose response (AID 449756); format: functional; settings: Rattus norvegicus;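 note: cell death triggered by IL-1 beta plus TNF-alpha plus IFN-gamma mixture; protective hits raise ATP signal compared with cytokine alone wells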
[15] = NIH-3T3 fibroblast cytotoxicity, dose response, cytotoxicity control, cell-based, fluorescence, Alamar Blue, secondary assay (AID 2327); format: functional;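 note: NIH-3T3 mouse fibroblasts cultured with fluconazole at 8 µg/mL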
[16] = biological target: Induced myeloid leukemia cell differentiation protein Mcl-1 (Homo sapiens, UniProt Q07820); format: functional
[17] = biological target: Eukaryotic translation initiation factor 4E (Mus musculus, UniProt P63073); experiment: blockers of eIF4G binding by eIF4E – biochemical, TR-FRET, dose response (AID 855); format: functional;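 note: potency for disrupting eIF4E binding to eIF4GI seen as loss of FRET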
[18] = biological target: T4, Fatty acid synthase (Homo sapiens, UniProt P49327); experiment: inhibition of human FAS-TE enzyme activity – biochemical, kinetic fluorescence intensity, dose response (AID 624326); format: functional;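 note: rate of fluorescence rise from hydrolysis of a fluorogenic O-methyl fluorescein ester substrate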
[19] = Luminescence Cell-Based Dose Retest to Confirm Inhibitors of Cancer Stem Cells. [Related pubchem assays (depositor defined):AID2717, AID2721]; format: functional; settings: Homo sapiens
[20] = general mammalian cell viability loss – inhibitor set, cherry-pick, set 2, cytotoxicity control for miR-122 modulator project, dose response (AID 720697); format: functional, cell-based
[21] = general mammalian cell viability loss – activator set, cherry-pick, cytotoxicity control for miR-122 modulator project, dose response (AID 720690); format: functional, cell-based;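 note: HEK293T human cells scored for general mammalian cytotoxicity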
[22] = biological target: T4, Fatty acid synthase; experiment: inhibition of human FAS-TE enzyme activity – biochemical, endpoint fluorescence intensity, uHTS hits, dose response (AID 624327); format: functional;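 note: fluorescence from hydrolysis of an O-methyl fluorescein acyl ester substrate by the enzyme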

T4 sequence (P49327 whole entry): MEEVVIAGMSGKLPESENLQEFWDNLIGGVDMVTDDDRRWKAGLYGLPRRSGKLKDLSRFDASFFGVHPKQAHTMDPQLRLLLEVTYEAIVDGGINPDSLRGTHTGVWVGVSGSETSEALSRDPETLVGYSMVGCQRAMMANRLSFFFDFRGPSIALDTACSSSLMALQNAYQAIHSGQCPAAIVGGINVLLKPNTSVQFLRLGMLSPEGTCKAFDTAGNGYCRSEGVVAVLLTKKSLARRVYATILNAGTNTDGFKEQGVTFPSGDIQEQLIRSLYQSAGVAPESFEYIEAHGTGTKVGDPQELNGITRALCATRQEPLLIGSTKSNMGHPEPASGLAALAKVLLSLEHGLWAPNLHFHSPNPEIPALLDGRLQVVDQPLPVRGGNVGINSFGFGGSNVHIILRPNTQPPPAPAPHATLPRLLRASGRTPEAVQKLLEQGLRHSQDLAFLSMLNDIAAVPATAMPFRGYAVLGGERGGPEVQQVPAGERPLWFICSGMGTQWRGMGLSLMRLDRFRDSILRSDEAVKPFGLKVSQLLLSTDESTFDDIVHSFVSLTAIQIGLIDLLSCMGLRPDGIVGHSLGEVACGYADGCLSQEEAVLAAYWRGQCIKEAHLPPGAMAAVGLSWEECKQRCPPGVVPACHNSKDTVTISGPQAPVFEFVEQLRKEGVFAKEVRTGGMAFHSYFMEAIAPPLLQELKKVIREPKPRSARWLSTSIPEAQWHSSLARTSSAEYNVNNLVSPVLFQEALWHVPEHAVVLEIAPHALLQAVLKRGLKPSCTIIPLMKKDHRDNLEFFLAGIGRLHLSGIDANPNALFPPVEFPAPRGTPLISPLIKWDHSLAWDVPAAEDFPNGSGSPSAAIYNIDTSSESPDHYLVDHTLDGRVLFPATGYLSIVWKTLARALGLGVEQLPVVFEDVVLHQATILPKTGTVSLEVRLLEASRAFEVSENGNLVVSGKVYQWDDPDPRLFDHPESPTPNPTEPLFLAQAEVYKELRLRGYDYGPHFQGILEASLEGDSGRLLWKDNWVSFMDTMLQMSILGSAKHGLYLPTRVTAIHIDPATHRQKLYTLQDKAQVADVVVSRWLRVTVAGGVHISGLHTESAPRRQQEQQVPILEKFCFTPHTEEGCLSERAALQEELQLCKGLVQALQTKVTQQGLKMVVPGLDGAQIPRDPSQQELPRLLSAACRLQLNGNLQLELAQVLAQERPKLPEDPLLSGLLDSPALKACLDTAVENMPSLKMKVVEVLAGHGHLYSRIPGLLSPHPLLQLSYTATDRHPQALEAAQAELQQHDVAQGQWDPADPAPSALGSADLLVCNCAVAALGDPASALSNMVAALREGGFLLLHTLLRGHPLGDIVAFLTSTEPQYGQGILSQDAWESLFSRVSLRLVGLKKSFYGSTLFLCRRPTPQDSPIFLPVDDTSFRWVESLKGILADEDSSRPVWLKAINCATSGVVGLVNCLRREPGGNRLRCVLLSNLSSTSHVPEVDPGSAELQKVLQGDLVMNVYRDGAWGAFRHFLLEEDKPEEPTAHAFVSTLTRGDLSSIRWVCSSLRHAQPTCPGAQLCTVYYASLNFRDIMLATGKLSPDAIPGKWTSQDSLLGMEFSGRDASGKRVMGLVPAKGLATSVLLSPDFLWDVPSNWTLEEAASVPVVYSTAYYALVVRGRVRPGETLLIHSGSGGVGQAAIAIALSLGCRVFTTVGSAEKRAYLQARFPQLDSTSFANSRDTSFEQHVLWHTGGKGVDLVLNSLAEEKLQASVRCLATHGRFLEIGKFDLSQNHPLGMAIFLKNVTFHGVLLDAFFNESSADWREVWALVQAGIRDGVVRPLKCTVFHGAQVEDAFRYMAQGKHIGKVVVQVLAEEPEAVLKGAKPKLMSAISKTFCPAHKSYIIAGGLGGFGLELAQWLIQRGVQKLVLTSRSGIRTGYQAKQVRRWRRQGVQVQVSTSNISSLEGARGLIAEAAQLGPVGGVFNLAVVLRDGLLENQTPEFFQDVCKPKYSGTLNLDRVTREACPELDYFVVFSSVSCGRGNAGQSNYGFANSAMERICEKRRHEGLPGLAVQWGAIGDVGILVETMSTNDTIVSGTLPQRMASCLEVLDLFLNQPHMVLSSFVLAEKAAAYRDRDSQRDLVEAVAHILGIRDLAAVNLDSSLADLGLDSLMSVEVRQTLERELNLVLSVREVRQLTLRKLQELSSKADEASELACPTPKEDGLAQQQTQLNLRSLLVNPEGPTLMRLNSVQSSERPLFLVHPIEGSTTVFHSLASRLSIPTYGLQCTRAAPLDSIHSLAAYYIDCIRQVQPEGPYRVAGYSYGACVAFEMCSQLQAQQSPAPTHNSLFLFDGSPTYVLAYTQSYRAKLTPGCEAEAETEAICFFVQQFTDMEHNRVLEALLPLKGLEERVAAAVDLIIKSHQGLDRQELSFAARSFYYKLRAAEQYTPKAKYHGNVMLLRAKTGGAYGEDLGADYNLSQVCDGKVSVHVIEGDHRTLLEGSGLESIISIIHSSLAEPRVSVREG
Chain of Eukaryotic translation initiation factor 4E (P63073 whole entry): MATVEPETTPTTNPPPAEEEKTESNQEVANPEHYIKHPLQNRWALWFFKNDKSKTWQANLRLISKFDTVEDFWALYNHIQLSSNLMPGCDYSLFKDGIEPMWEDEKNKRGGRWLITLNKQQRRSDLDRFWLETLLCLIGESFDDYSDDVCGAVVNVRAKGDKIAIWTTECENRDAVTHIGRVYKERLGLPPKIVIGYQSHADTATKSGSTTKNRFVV
Chain of Induced myeloid leukemia cell differentiation protein Mcl-1 (Q07820 whole entry): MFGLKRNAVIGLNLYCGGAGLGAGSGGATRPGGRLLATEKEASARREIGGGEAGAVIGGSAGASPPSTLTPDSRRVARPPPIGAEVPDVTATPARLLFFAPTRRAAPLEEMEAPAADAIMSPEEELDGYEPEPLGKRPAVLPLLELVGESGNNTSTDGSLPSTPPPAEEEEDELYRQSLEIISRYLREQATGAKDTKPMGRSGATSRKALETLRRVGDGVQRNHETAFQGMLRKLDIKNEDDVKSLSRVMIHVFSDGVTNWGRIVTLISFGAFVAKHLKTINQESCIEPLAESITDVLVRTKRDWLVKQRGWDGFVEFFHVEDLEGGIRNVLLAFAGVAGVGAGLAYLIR
Chain of Paired box protein Pax-8 (Q06710 whole entry): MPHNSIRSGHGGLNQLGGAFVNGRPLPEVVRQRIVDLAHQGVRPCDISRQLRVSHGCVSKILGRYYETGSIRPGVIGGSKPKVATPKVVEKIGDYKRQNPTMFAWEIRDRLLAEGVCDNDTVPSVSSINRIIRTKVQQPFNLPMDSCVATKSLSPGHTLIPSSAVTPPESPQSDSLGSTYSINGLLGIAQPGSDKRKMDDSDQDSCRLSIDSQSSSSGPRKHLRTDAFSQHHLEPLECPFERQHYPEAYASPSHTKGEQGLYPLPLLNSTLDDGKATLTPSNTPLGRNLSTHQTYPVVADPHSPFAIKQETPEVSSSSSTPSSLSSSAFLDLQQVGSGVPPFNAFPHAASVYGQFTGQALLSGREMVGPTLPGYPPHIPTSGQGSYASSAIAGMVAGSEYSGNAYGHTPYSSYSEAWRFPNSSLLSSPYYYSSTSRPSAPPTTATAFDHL
Chain of Histone-lysine N-methyltransferase NSD2 (O96028 whole entry): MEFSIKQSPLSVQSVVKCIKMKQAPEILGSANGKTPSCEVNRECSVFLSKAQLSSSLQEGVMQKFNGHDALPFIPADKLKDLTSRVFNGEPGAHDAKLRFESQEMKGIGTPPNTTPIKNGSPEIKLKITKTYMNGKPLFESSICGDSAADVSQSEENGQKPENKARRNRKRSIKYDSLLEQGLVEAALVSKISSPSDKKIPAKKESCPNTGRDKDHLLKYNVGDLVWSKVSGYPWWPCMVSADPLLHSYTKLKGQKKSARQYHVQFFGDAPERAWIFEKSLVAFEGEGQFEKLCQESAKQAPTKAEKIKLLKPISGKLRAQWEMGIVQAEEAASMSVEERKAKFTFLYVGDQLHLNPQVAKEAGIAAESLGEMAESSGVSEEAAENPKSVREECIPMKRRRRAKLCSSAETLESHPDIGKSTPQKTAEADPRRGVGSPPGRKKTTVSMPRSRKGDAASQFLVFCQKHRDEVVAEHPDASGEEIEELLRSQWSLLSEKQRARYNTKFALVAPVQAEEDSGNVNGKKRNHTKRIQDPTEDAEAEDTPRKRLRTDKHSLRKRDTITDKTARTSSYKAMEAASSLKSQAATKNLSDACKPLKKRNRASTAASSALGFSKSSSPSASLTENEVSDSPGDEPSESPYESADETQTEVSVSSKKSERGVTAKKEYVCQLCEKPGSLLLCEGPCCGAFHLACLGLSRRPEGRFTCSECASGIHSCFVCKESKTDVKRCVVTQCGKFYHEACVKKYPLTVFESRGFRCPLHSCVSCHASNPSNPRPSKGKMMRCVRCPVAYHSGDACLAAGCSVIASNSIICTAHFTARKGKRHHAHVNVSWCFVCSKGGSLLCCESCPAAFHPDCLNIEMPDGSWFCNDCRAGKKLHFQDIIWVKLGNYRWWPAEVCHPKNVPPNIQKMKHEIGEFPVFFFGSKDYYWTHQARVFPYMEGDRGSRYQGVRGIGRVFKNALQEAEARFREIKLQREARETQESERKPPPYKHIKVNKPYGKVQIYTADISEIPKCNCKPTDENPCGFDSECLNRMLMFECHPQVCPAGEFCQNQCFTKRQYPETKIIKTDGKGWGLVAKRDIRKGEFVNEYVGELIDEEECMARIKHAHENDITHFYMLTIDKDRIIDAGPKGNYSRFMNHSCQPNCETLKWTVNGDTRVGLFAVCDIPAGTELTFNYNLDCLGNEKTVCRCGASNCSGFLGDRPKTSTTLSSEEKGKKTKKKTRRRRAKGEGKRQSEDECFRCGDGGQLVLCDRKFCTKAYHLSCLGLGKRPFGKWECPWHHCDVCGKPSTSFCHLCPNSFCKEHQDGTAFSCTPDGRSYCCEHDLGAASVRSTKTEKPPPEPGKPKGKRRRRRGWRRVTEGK

In the case of `COc1cccc(-c2nc3ccccc3s2)c1`, the EC50 [1] is reported as > 67.5 µM (inactive).

In the case of `CCN1C(C(=O)c2ccccc2)=C(O)c2ccccc2S1(=O)=O`, the EC50 [2] is reported as > 195 µM (not active), the CC50 [3] is reported as 24.3 µM (active) and the CC50 [4] is reported as 19.2 µM (active). For the same compound, the CC50 [5] was 26.2 µM (active) and the IC50 [6] was > 100 µM (inactive).

For `c1ccc(-c2noc(-c3cccc4ccccc34)n2)nc1`, the EC50 [7] was > 67.5 µM (inactive) and the EC50 [8] was > 67.5 µM (inactive).

With `CN1c2ccccc2N(C)C1(C)c1ccccc1` the AC50 [9] was 9.4 µM (active), the EC50 [10] was 0.278 µM (active) and the AC50 [11] was > 20 µM (inactive). For the same compound, the EC50 [12] was > 60 µM (not active), the EC50 [13] was > 38 µM (not active) and the AC50 [14] was 0.283 µM (active). The EC50 [15] was > 150 µM (inactive), the IC50 [16] was 4.95 µM (active) and the IC50 [17] was > 64 µM (inactive).

For `CN(C)CCNc1nc2sc3c(c2c(=O)n1CCc1ccccc1)CCCCC3`, the EC50 [10] was 0.125 µM (active), the IC50 [18] was 19.3 µM (active) and the EC50 [12] was 30.9 µM (active). The AC50 [19] was 6.6 µM (active), the AC50 [20] was 7.83 µM (active) and the AC50 [21] was 14.7 µM (active). For the same compound, the IC50 [22] was 18.8 µM (active).

For `c1ccc(CSc2ccc(-c3cccs3)nn2)cc1`, the EC50 [1] was > 67.5 µM (inactive).
